Measurements: patent publication US7432376B2, “Tropane prodrugs with central nervous system activity” (Research Foundation of State University of New York, The, priority 2006, dated 2008)
Where two headings read alike, the source gives them in different places.

What was measured:
[1] = target: T1, 5-HT transport sites (SERT) (Rattus norvegicus, UniProt P31652); experiment: Displacement of [3H]paroxetine binding at 5-HT transport sites in membranes from rat frontal cortex; design: species or system Sprague-Dawley rat
T1 construct: tissue Pel-Freez, Rogers, Ark; host or cells: rat frontal cortex membranes
Procedure: (§1) Binding of at biogenic amine transporters was determined using striatum and frontal cortex dissected from frozen Sprague-Dawley rat brains (Pel-Freez, Rogers, Ark.). […] Affinities of analogs at 5-HT transport sites were determined by displacement of [^3H]paroxetine binding in membranes from rat frontal cortex, using 50 mg (original wet weight) of membranes and 0.4 nM [^3H]paroxetine. Non-specific binding was determined in the presence of 10 μM fluoxetine. Binding of analogs at norepinephrine transport sites was determined by displacement of [^3H]nisoxetine binding in membranes from rat forebrain, using 0.7 nM [^3H]nisoxetine. Non-specific binding was determined in the presence of 1 μM desipramine.
(§2) Potencies were calculated from displacement curves using 7-10 concentrations of unlabeled analogs, as analyzed by non-linear curve fitting. […] For [^3H]paroxetine and [^3H]nisoxetine binding assays, Ki values were calculated using the Cheng-Prusoff equation.^1 All data are mean values±S.E.M. of at least three separate experiments, each of which was conducted in triplicate.

[2] = target: T2, dopamine transport sites (DAT) (Rattus norvegicus, UniProt P23977); experiment: Displacement of [125I]RTI-55 binding at dopamine transport sites in membranes from rat striatum; design: species or system Sprague-Dawley rat
T2 construct: tissue Pel-Freez, Rogers, Ark; host or cells: rat striatum membranes
Procedure: as §1, §2

T1 sequence (P31652 whole entry): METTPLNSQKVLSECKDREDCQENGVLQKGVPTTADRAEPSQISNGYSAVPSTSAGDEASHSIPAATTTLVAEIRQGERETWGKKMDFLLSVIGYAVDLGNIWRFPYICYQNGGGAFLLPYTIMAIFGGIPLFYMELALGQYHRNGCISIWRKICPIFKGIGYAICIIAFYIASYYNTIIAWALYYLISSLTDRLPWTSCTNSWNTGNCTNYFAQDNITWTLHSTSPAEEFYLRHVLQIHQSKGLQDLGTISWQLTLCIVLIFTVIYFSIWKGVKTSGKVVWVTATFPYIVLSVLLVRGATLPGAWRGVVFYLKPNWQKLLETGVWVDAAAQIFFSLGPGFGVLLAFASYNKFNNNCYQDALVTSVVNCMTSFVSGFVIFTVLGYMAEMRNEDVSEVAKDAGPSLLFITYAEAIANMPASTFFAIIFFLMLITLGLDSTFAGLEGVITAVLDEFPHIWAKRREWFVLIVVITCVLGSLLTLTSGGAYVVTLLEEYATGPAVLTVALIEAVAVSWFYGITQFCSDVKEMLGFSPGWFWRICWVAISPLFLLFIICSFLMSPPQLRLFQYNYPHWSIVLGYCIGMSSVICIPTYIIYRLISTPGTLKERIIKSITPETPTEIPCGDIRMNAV
T2 sequence (P23977 whole entry): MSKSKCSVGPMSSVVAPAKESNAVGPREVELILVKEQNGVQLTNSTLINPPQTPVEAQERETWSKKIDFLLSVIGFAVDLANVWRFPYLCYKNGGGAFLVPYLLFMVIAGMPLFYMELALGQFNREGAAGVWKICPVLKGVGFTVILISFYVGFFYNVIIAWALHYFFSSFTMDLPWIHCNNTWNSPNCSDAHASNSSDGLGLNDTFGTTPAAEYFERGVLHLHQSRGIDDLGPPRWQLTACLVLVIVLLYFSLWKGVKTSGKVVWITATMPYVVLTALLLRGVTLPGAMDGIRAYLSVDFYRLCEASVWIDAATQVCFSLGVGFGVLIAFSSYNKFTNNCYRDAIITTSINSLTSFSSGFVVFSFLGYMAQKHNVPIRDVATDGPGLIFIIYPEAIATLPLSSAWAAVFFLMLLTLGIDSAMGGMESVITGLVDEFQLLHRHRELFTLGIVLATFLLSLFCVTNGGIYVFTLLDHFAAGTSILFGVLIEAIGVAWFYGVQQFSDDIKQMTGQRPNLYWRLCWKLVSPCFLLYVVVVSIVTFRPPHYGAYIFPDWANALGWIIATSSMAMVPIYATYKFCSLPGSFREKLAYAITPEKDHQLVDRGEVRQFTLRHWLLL

CCC(O)C1C(c2ccc(C)cc2)CC2CCC1N2C (stereo not drawn) [Compound 41a]
Ki [1]: 161 nM | IC50 [2]: 3.69 nM

CCC(O)C1C(c2ccc3ccccc3c2)CC2CCC1N2C (stereo not drawn) [Compound 41b]
Ki [1]: 588 nM | IC50 [2]: 6.22 nM

CCC(OC(C)=O)C1C(c2ccc(C)cc2)CC2CCC1N2C (stereo not drawn) [Compound 42a]
Ki [1]: > 10000 nM | IC50 [2]: 87.9 nM

CCC(OC(C)=O)C1C(c2ccc3ccccc3c2)CC2CCC1N2C (stereo not drawn) [Compound 42b]
Ki [1]: 1.06 nM | IC50 [2]: 1.72 nM

CCCCCCCCCCCC(=O)OC(CC)C1C(c2ccc(C)cc2)CC2CCC1N2C (stereo not drawn) [Compound 43a]
Ki ([1]; rat frontal cortex membranes, 0.4 nM [3H]paroxetine, Ki by Cheng-Prusoff, mean of at least three experiments, read-out: Ki SERT): 1.91 nM | IC50 ([2]; rat striatum membranes, 10 pM [125I]RTI-55, mean of at least three experiments, read-out: IC50 DA): 0.891 nM

CCCCCCCCCCCC(=O)OC(CC)C1C(c2ccc3ccccc3c2)CC2CCC1N2C (stereo not drawn) [Compound 43b]
Ki [1]: 90.8 nM | IC50 [2]: 109 nM
